Laboratory results: patent US20230120597A1, “CO-AGONISTS AT GLP-1 AND GIP RECEPTORS SUITABLE FOR ORAL DELIVERY” (Novo Nordisk A/S, priority 2020, published 2023)
Marks after values point to notes of the source that are not given here. Starred links: 1 amine or outer side, 2 acyl side, 3 side chain; linkers in the order of their positions; H or OH if unused. Non-standard residues stand in square brackets, D forms with d. Residues, ends and D or L forms follow the SMILES beside them. Groups on a side chain read outwards from the residue. *: point of attachment. C18 diacid = O=C(O)CCCCCCCCCCCCCCCCC(=O)*; γGlu = O=C(O)[C@H](CCC(=O)[*:2])N[*:1]; εLys = N[C@@H](CCCCN[*:1])C(=O)[*:2]; AEEA = NCCOCCOCC(=O)O; Aib = CC(C)(N)C(=O)O

Experiment: Pharmacokinetic study in dogs, oral dosing of tablet compositions with SNAC
Type: in vivo, Beagle dogs
Method: The purpose of this example is to determine the half-life and plasma exposure in vivo of the compounds of the present invention after p.o. administration to beagle dogs, i.e. the terminal half-life and concentration of test substance that reaches circulation with time. This is done in a pharmacokinetic (PK) study, where these parameters of the compound in question are determined. By terminal half-life is generally meant the period of time it takes to halve a certain plasma concentration, measured after the initial distribution phase.
The amount of SNAC in the tablet composition was 100-300 mg, the amount of magnesium stearate in the tablet composition was 7.7 mg, and the target amount of each test substance in the tablet composition was 3-4 mg.
Male beagle dogs, 1-7 years of age and weighing 9-17 kg during the study period, were included in the study. The dogs were dosed in a fasting state. The dogs were group housed in pens (12 hours light: 12 hours dark), and fed individually and restrictedly once daily with Royal Canin Medium Adult dog food (Royal Canin Products, China Branch, or Brogaarden A/S, Denmark). The dogs were used for repeated PK studies with a suitable wash-out period between successive dosing. An appropriate acclimatization period was given prior to initiation of the first PK study. All handling, dosing, and blood sampling of the animals were performed by trained and skilled staff. Before the studies, the dogs were fasted overnight and from 0 to 4 hours after dosing. The dogs were restricted to water 1 hour before dosing until 4 hours after dosing, but otherwise had ad libitum access to water during the whole period.
The compositions were administered by a single oral dosing to the dogs in groups of 6-8 dogs. […] The mouth was then closed, and 10 mL of tap water was given by syringe or gavage to facilitate swallowing of the tablet.
One blood sample was drawn before dosing, and additional samples were drawn at predefined time points after dosing for up to 240 hours, such as up to 10 hours, to adequately cover the full plasma concentration-time absorption profile of the test substance. For each blood sample time point, approximately 0.8 mL of whole blood was collected in a 1.5 mL EDTA-coated tube, which was gently turned to mix the sample with EDTA. Blood samples were collected in EDTA buffer (8 mM) and then centrifuged at 4° C. 2000 g for 10 minutes. Plasma was pipetted into Micronic tubes on dry ice, and kept at −20° C. or lower until analysis. Blood samples were taken as appropriate, for example from a venflon in the cephalic vein in the front leg for the first 2 hours and then with syringe from the jugular vein for the rest of the time points. The first few drops were allowed to drain from the venflon to avoid heparin saline from the venflon in the sample.
All blood samples were collected into test tubes containing EDTA for stabilisation and kept on ice until centrifugation. Plasma was separated from whole blood by centrifugation and the plasma was stored at −20° C. or lower until analysis.
The plasma was analysed for test substance using LC-MS (Liquid Chromatography-Mass Spectrometry) as known to the person skilled in the art. […] RP-HPLC separation was achieved using a linear gradient of 1:1 acetonitrile/methanol in 1% aqueous formic acid using either: a Phenomenex Onyx Monolithic C18 column (50×2.0 mm) and a flow rate of 0.8 mL/min at 30° C.; or an Agilent Poroshell 120 SB-C18 column (50×2.1 mm, 2.7 μm) at a flow rate of 0.4 mL/min at 60° C. The mass spectrometer was operated in either positive ionization SIM mode or positive ionization PRM mode.
For each individual animal, a plasma concentration-time profile was analysed by a non-compartmental model in Pharsight Phoenix WinNonLin ver.

CC[C@H](C)[C@H](NC(=O)[C@H](Cc1ccccc1)NC(=O)[C@H](CCC(=O)O)NC(=O)[C@H](CCCNC(=N)N)NC(=O)[C@H](C)NC(=O)[C@H](C)NC(=O)[C@H](CCC(N)=O)NC(=O)[C@H](CCCCNC(=O)[C@@H](N)CCCCNC(=O)[C@@H](N)CCCCNC(=O)CC[C@H](NC(=O)CCCCCCCCCCCCCCCCC(=O)O)C(=O)O)NC(=O)[C@H](CCC(=O)O)NC(=O)[C@H](CC(C)C)NC(=O)[C@H](CC(C)C)NC(=O)[C@@H](NC(=O)[C@H](CO)NC(=O)[C@H](Cc1ccc(O)cc1)NC(=O)[C@H](CC(=O)O)NC(=O)[C@H](CO)NC(=O)[C@@H](NC(=O)[C@H](Cc1ccccc1)NC(=O)[C@@H](NC(=O)CNC(=O)[C@H](CCC(=O)O)NC(=O)C(C)(C)NC(=O)[C@@H](N)Cc1ccc(O)cc1)[C@@H](C)O)[C@@H](C)O)[C@@H](C)CC)C(=O)N[C@@H](CCC(=O)O)C(=O)N[C@@H](Cc1c[nH]c2ccccc12)C(=O)N[C@@H](CC(C)C)C(=O)N[C@@H](CC(C)C)C(=O)N[C@@H](CCCNC(=N)N)C(=O)NCC(=O)NCC(=O)N1CCC[C@H]1C(=O)N[C@@H](CCC(=O)O)C(=O)N[C@@H](CO)C(=O)NCC(=O)N[C@@H](C)C(=O)N1CCC[C@H]1C(=O)N1CCC[C@H]1C(=O)N1CCC[C@H]1C(=O)N[C@@H](CO)C(=O)O [Compound No. 28] (H-Y[Aib]EGTFTSDYSILLEK([εLys-εLys-γGlu-C18 diacid])QAAREFIEWLLRGGPESGAPPPS-OH)
AUC/Dose (oral tablet, SNAC 300 mg, test substance 3 mg, Beagle dogs, arithmetic mean): 18.6** kg*h/L

CC[C@H](C)[C@H](NC(=O)[C@H](Cc1ccccc1)NC(=O)[C@H](CCC(=O)O)NC(=O)[C@H](CCC(N)=O)NC(=O)[C@H](C)NC(=O)[C@H](C)NC(=O)[C@H](CCC(N)=O)NC(=O)[C@H](CCCCNC(=O)[C@@H](N)CCCCNC(=O)[C@@H](N)CCCCNC(=O)CC[C@H](NC(=O)CCCCCCCCCCCCCCCCC(=O)O)C(=O)O)NC(=O)[C@H](CCC(=O)O)NC(=O)[C@H](CC(C)C)NC(=O)[C@H](CC(C)C)NC(=O)[C@@H](NC(=O)[C@H](CO)NC(=O)[C@H](Cc1ccc(O)cc1)NC(=O)[C@H](CC(=O)O)NC(=O)[C@H](CO)NC(=O)[C@@H](NC(=O)[C@H](Cc1ccccc1)NC(=O)[C@@H](NC(=O)CNC(=O)[C@H](CCC(=O)O)NC(=O)C(C)(C)NC(=O)[C@@H](N)Cc1ccc(O)cc1)[C@@H](C)O)[C@@H](C)O)[C@@H](C)CC)C(=O)N[C@@H](CCC(=O)O)C(=O)N[C@@H](Cc1c[nH]c2ccccc12)C(=O)N[C@@H](CC(C)C)C(=O)N[C@@H](CC(C)C)C(=O)N[C@@H](C)C(=O)NCC(=O)NCC(=O)N1CCC[C@H]1C(=O)N[C@@H](CO)C(=O)N[C@@H](CO)C(=O)NCC(=O)N[C@@H](C)C(=O)N1CCC[C@H]1C(=O)N1CCC[C@H]1C(=O)N1CCC[C@H]1C(=O)N[C@@H](CO)C(=O)O [Compound No. 29] (H-Y[Aib]EGTFTSDYSILLEK([εLys-εLys-γGlu-C18 diacid])QAAQEFIEWLLAGGPSSGAPPPS-OH)
AUC/Dose (dog, in vivo, po): 16.6** kg*h/L

CC[C@H](C)[C@H](NC(=O)[C@H](Cc1ccccc1)NC(=O)[C@H](CCC(=O)O)NC(=O)[C@H](Cc1c[nH]cn1)NC(=O)[C@H](C)NC(=O)[C@H](C)NC(=O)[C@H](CCC(N)=O)NC(=O)[C@H](CCCCNC(=O)[C@@H](N)CCCCNC(=O)[C@@H](N)CCCCNC(=O)CC[C@H](NC(=O)CCCCCCCCCCCCCCCCC(=O)O)C(=O)O)NC(=O)[C@H](CCC(=O)O)NC(=O)[C@H](CC(C)C)NC(=O)[C@H](CC(C)C)NC(=O)[C@@H](NC(=O)[C@H](CO)NC(=O)[C@H](Cc1ccc(O)cc1)NC(=O)[C@H](CC(=O)O)NC(=O)[C@H](CO)NC(=O)[C@@H](NC(=O)[C@H](Cc1ccccc1)NC(=O)[C@@H](NC(=O)CNC(=O)[C@H](CCC(=O)O)NC(=O)C(C)(C)NC(=O)[C@@H](N)Cc1ccc(O)cc1)[C@@H](C)O)[C@@H](C)O)[C@@H](C)CC)C(=O)N[C@@H](CCC(=O)O)C(=O)N[C@@H](Cc1c[nH]c2ccccc12)C(=O)N[C@@H](CC(C)C)C(=O)N[C@@H](CC(C)C)C(=O)N[C@@H](C)C(=O)NCC(=O)NCC(=O)N1CCC[C@H]1C(=O)N[C@@H](CO)C(=O)N[C@@H](CO)C(=O)NCC(=O)N[C@@H](C)C(=O)N1CCC[C@H]1C(=O)N1CCC[C@H]1C(=O)N1CCC[C@H]1C(=O)N[C@@H](CO)C(=O)O [Compound No. 30] (H-Y[Aib]EGTFTSDYSILLEK([εLys-εLys-γGlu-C18 diacid])QAAHEFIEWLLAGGPSSGAPPPS-OH; N-terminus assumed)
AUC/Dose (dog, in vivo, po): 6.5 kg·h/L

CC[C@H](C)[C@H](NC(=O)[C@H](Cc1ccccc1)NC(=O)[C@H](CCC(=O)O)NC(=O)[C@H](CCCNC(=N)N)NC(=O)[C@H](C)NC(=O)[C@H](C)NC(=O)[C@H](CCC(N)=O)NC(=O)[C@H](CCCCNC(=O)[C@@H](N)CCCCNC(=O)[C@@H](N)CCCCNC(=O)CC[C@H](NC(=O)CCCCCCCCCCCCCCCCC(=O)O)C(=O)O)NC(=O)[C@H](CCC(=O)O)NC(=O)[C@H](CC(C)C)NC(=O)[C@H](CC(C)C)NC(=O)[C@@H](NC(=O)[C@H](CO)NC(=O)[C@H](Cc1ccc(O)cc1)NC(=O)[C@H](CC(=O)O)NC(=O)[C@H](CO)NC(=O)[C@@H](NC(=O)[C@H](Cc1ccccc1)NC(=O)[C@@H](NC(=O)CNC(=O)[C@H](CCC(=O)O)NC(=O)C(C)(C)NC(=O)[C@@H](N)Cc1ccc(O)cc1)[C@@H](C)O)[C@@H](C)O)[C@@H](C)CC)C(=O)N[C@@H](CCC(=O)O)C(=O)N[C@@H](Cc1c[nH]c2ccccc12)C(=O)N[C@@H](CC(C)C)C(=O)N[C@@H](CC(C)C)C(=O)N[C@@H](C)C(=O)NCC(=O)NCC(=O)N1CCC[C@H]1C(=O)N[C@@H](CO)C(=O)N[C@@H](CO)C(=O)NCC(=O)N[C@@H](C)C(=O)N1CCC[C@H]1C(=O)N1CCC[C@H]1C(=O)N1CCC[C@H]1C(=O)N[C@@H](CO)C(=O)O [Compound No. 31] (H-Y[Aib]EGTFTSDYSILLEK([εLys-εLys-γGlu-C18 diacid])QAAREFIEWLLAGGPSSGAPPPS-OH; N-terminus assumed)
AUC/Dose (dog, in vivo, po): 17.9** kg*h/L

CC[C@H](C)[C@H](NC(=O)[C@H](Cc1ccccc1)NC(=O)[C@H](CCC(=O)O)NC(=O)[C@H](CCCNC(=N)N)NC(=O)[C@H](C)NC(=O)[C@H](C)NC(=O)[C@H](CCC(N)=O)NC(=O)[C@H](CCCCNC(=O)COCCOCCNC(=O)COCCOCCNC(=O)CC[C@H](NC(=O)CCCCCCCCCCCCCCCCC(=O)O)C(=O)O)NC(=O)[C@H](CCC(=O)O)NC(=O)[C@H](CC(C)C)NC(=O)[C@H](CC(C)C)NC(=O)[C@@H](NC(=O)[C@H](CO)NC(=O)[C@H](Cc1ccc(O)cc1)NC(=O)[C@H](CC(=O)O)NC(=O)[C@H](CO)NC(=O)[C@@H](NC(=O)[C@H](Cc1ccccc1)NC(=O)[C@@H](NC(=O)CNC(=O)[C@H](CCC(=O)O)NC(=O)C(C)(C)NC(=O)[C@@H](N)Cc1ccc(O)cc1)[C@@H](C)O)[C@@H](C)O)[C@@H](C)CC)C(=O)N[C@@H](CCC(=O)O)C(=O)N[C@@H](Cc1c[nH]c2ccccc12)C(=O)N[C@@H](CC(C)C)C(=O)N[C@@H](CC(C)C)C(=O)N[C@@H](C)C(=O)NCC(=O)NCC(=O)N1CCC[C@H]1C(=O)N[C@@H](CO)C(=O)N[C@@H](CO)C(=O)NCC(=O)N[C@@H](C)C(=O)N1CCC[C@H]1C(=O)N1CCC[C@H]1C(=O)N1CCC[C@H]1C(=O)N[C@@H](CO)C(=O)O [Compound No. 32] (H-Y[Aib]EGTFTSDYSILLEK([AEEA-AEEA-γGlu-C18 diacid])QAAREFIEWLLAGGPSSGAPPPS-OH; N-terminus assumed)
AUC/Dose (dog, in vivo, po): 25.3* kg*h/L
